The results in this text go back to PMC11743672, “Characterization of the ligand-binding properties of odorant-binding protein 38 from Riptortus pedestris when interacting with soybean volatiles” (Frontiers in Physiology, 2025).

Like-named read-outs stand apart in the source and are kept apart here.

The target of this test is RpedOBP38 (Riptortus pedestris, UniProt A0A2Z4HQ26). Kind of test: Fluorescence competitive binding assay (1-NPN displacement). Particulars: for IC50: 2 μM recombinant RpedOBP38 and 1-NPN, PBS pH 7.4, three replicates. The source says:
Recombinant RpedOBP38 binding to putative chemical ligands was characterized with a microplate reader (BioTek Synergy H1, United States). Fluorescence intensity values at the excitation wavelength of 337 nm and a maximum fluorescence emission wavelength of 450 nm were plotted against the free concentration of ligand for the measurement of dissociation constants, selecting candidate ligands from among 36 volatile compounds that included 11 green leaf volatiles ([Chen et al., 2018]; [Guo and Wang, 2019]; [Cheng et al., 2020]; [Hong et al., 2022]; [Tang et al., 2023]; [Zhu et al., 2023]), 11 soybean volatiles ([Wang et al., 2019a]; [Zhu et al., 2022]), 10 repellent activity volatiles ([Zhang et al., 2013]; [Zhang et al., 2014]), and 4 aggregation pheromone compounds ([Leal et al., 1995]; [Yasuda et al., 2007]). HPLC-grade methanol was used for the dissolution of the probe N-phenyl-1-naphthylamine (1-NPN) and all ligands. The ability of RpedOBP38 to bind 1-NPN was assessed by using 10 mM PBS (pH 7.4) to prepare a 2 μM purified protein solution, titrating with 1 mM 1-NPN in methanol to prepare final concentrations from 2–20 μM. RpedOBP38 binding to each ligand was evaluated in a solution consisting of 2 μM purified protein and 1-NPN, followed by titration through the addition of ligands until no further decrease in the fluorescence intensity was observed. Ligands were independently replicated three times, and dissociation constants for each ligand were measured as follows: Ki = [IC50]/(1 + [1-NPN]/K1-NPN), where IC50 denotes the ligand concentration when the fluorescence intensity is half of the initial value [1-NPN] is the free 1-NPN concentration, and K1-NPN is the dissociation constant for the RpedOBP38/1-NPN complex ([Campanacci et al., 2001]).

[1] abbreviates: Ki = [IC50]/(1 + [1-NPN]/K1-NPN), 2 μM protein and 1-NPN, Ki > 40 considered weak binding.
The mark [2] stands for this setting: values as quoted in running text.

RpedOBP38, sequence (A0A2Z4HQ26 entry or part of it): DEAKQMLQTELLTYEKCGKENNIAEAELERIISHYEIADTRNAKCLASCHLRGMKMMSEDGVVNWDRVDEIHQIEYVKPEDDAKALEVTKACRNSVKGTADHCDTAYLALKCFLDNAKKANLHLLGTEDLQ

As usually defined, the IC50 is the concentration that gives 50% inhibition. By Ki is commonly meant the equilibrium dissociation constant of an inhibitor or competing ligand from its target. `CCCCCCCCCCCCCCOC(=O)C(C)C` [myristyl isobutyrate]: the IC50 is above 40 µM. Under setting [1], the Ki is above 40 µM.

Regarding `C=C(C)[C@H]1CC=C(C)C(=O)C1` [(+)-carvone], the IC50 was above 40 µM. Besides, under setting [1], the Ki is above 40 µM.

Regarding `CC1=CCC2CC1C2(C)C` (stereo not drawn) [(−)-α-pinene], the IC50 is above 40 µM. Further, the Ki under setting [1] was above 40 µM.

On to `C=C(C)C1CC=C(C)C(=O)C1` (single isomer, unassigned; (-)) [(−)-carvone], for which the Ki came out at 27.2 ± 3.88 µM and the IC50 is 36.2 ± 5.17 µM. Also, the Ki under setting [2] worked out at 27.2 µM.

Take `CC1=CC[C@](O)(C(C)C)CC1` [(+) -4-terpineol]: the inhibition constant (Ki) is 14 ± 0.321 µM and the IC50 was 18.7 ± 0.428 µM. Also, the Ki under setting [2] is 14 µM.

For the compound `CC1=CC[C@@](O)(C(C)C)CC1` [(−) -4-terpineol], the IC50 is above 40 µM. Under setting [1], the Ki is above 40 µM.
